From US8389523B2, “Substituted quinoxaline and an agrochemical composition thereof” (Kumiai Chemical Industry Co., Ltd., priority 2007, dated 2013)

How the values were obtained:
Format in all cases: in vivo
Design in all cases: scale not given here
[1] = tested on: Abutilon theophrasti medicus; assay: Herbicidal effects in upland field foliar treatment (Test Example 3); settings: criteria of Table 138; for herbicidal effect (index) on Abutilon theophrasti medicus: 1000 g active ingredient per hectare, 14th day after treatment; for herbicidal effects on Abutilon theophrasti medicus: 1000 g of the active ingredient per hectare, 14th day after the treatment, wettable powder
Summary of the method: (§1)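 Weeds were sown in upland field soil and grown two weeks in a greenhouse before a foliar spray over the whole plant. Wettable powder was diluted in water and applied at 1000 L/ha, delivering 1000 g active ingredient/ha. Herbicidal effect was scored against set rating criteria 14 days after treatment.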

[2] = tested on: Echinochloa crus-galli (L.) P. Beauv. var. crus-galli; assay: as above; settings: criteria of Table 138; for herbicidal effect (index) on Echinochloa crus-galli (L.) P. Beauv. var. crus-galli: 1000 g active ingredient per hectare, 14th day after treatment; for herbicidal effects on Echinochloa crus-galli (L.) P. Beauv. var. crus-galli: 1000 g of the active ingredient per hectare, 14th day after the treatment, wettable powder
Summary of the method: as §1

Amaranthus viridis L. [3] = assay: as above; settings: criteria of Table 138; for herbicidal effect (index) on Amaranthus viridis L.: 1000 g active ingredient per hectare, 14th day after treatment; for herbicidal effects on Amaranthus viridis L.: 1000 g of the active ingredient per hectare, 14th day after the treatment, wettable powder
Summary of the method: as §1

[4] = tested on: Monochoria vaginalis (Burm. f.) Presl var. plantaginea (Roxb.) Solms-Laub.; assay: Herbicidal effects in paddy field soil treatment (Test Example 1); settings: for Herbicidal effects index, Monochoria vaginalis (Burm. f.) Presl var. plantaginea (Roxb.) Solms-Laub.: paddy field soil treatment, 1000 g of the active ingredient per hectare, wettable powder added dropwise on water surface, 21st day after treatment
Summary of the method: (§2)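 Weed seeds were sown into puddled, leveled paddy soil in pots and flooded to 3 cm water depth. One day later the diluted wettable powder formulation was dropped onto the water surface at 1000 g active ingredient per hectare. Herbicidal effect was scored on day 21 after greenhouse growth.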

[5] = tested on: Echinochloa oryzicola Vasing; assay: as above; settings: for Herbicidal effects index, Echinochloa oryzicola Vasing: paddy field soil treatment, 1000 g of the active ingredient per hectare, wettable powder added dropwise on water surface, 21st day after treatment
Summary of the method: as §2

[6] = tested on: Scirpus juncoides Roxb. var. ohwianus. T. Koyama; assay: as above; settings: for Herbicidal effects index, Scirpus juncoides Roxb. var. ohwianus. T. Koyama: paddy field soil treatment, 1000 g of the active ingredient per hectare, wettable powder added dropwise on water surface, 21st day after treatment
Summary of the method: as §2

[7] = tested on: Abutilon theophrasti medicus; assay: Herbicidal effects in upland field soil treatment (Test Example 2); settings: 1000 g active ingredient per hectare, 21st day after treatment, criteria of Table 138
Summary of the method: (§3)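 Pre-emergence soil application: seeds sown in upland field soil, covered, then wettable powder diluted in water sprayed on the soil surface at 1000 g active ingredient/ha in 1000 L/ha. Plants grown in greenhouse; herbicidal effect scored on a rating scale 21 days after treatment.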

Amaranthus viridis L. [8] = assay: as above; settings: 1000 g active ingredient per hectare, 21st day after treatment, criteria of Table 138
Summary of the method: as §3

[9] = paddy field soil treatment (Test Example 1), criteria of Table 138

Structure (SMILES) | herbicidal effect (index) on Abutilon theophrasti medicus [1] | herbicidal effect (index) on Echinochloa crus-galli (L.) P. Beauv. var. crus-galli [2] | herbicidal effect (index) on Amaranthus viridis L. (Amaranthus viridis L. [3]) | Herbicidal effects index, Monochoria vaginalis (Burm. f.) Presl var. plantaginea (Roxb.) Solms-Laub. [4] | Herbicidal effects index, Echinochloa oryzicola Vasing [5] | Herbicidal effects index, Scirpus juncoides Roxb. var. ohwianus. T. Koyama [6] | herbicidal effect (index) on Abutilon theophrasti medicus [7] | herbicidal effect (index) on Amaranthus viridis L. (Amaranthus viridis L. [8]) | herbicidal effects on Abutilon theophrasti medicus [1] | herbicidal effects on Echinochloa crus-galli (L.) P. Beauv. var. crus-galli [2] | herbicidal effects on Amaranthus viridis L. (Amaranthus viridis L. [3]) | herbicidal effect (index) on Monochoria vaginalis (Burm. f.) Presl var. plantaginea (Roxb.) Solms-Laub. [4, 9] | herbicidal effect (index) on Echinochloa oryzicola Vasing [5, 9] | herbicidal effect (index) on Scirpus juncoides Roxb. var. ohwianus. T. Koyama [6, 9]
O=C1CCCC(O)=C1C(=O)c1nc2ccccc2n(-c2ccccc2)c1=O [II-1] | 5 | 5 | 5 | 5 | 5 | 5 | 5 | 5 | – | – | – | – | – | –
Cn1nc(C(F)(F)F)cc1-n1c(=O)c(C(=O)C2=C(O)CCCC2=O)nc2ccccc21 [I-158] | 5 | 5 | 5 | 5 | 5 | 5 | 5 | 5 | – | – | – | – | – | –
O=C1CCCC(O)=C1C(=O)c1nc2cccnc2n(-c2ccccc2OC(F)F)c1=O [IV-85] | – | – | – | – | – | – | 5 | 5 | 5 | 5 | 5 | 5 | 5 | 5
Cc1cccc(-n2c(=O)c(C(=O)C3=C(O)CCCC3=O)nc3ccccc32)n1 [I-173, 3-(2-hydroxy-6-oxo-1-cyclohexenecarbonyl)-1-(6-methyl-2-pyridyl)-quinoxalin-2 (1H)-one] | 5 | 5 | 5 | 5 | 5 | 5 | 5 | 5 | – | – | – | – | – | –
COc1ccc(-n2c(=O)c(C(=O)C3=C(O)CCCC3=O)nc3ccc(F)cc32)cc1 [II-188] | – | – | – | 5 | 5 | 5 | 5 | 5 | 5 | 4 | 5 | – | – | –
Cc1ccc(-n2c(=O)c(C(=O)C3=C(O)CCCC3=O)nc3ccccc32)c(Cl)c1 [II-215] | – | – | – | 5 | 5 | 5 | 5 | 5 | 5 | 5 | 5 | – | – | –
Cc1ccc(-n2c(=O)c(C(=O)C3=C(O)CCCC3=O)nc3cccnc32)cc1 [IV-21] | – | – | – | 5 | 5 | 5 | 5 | 5 | 5 | 5 | 5 | – | – | –
O=C1CCCC(O)=C1C(=O)c1nc2ccccc2n(COCC(F)(F)F)c1=O [I-59] | 5 | 5 | 5 | 5 | 5 | 5 | 5 | 5 | – | – | – | – | – | –
